Literature values in patent publication US8211048B2 (Henry Ford Health System, priority 2006, dated 2012).
Where two headings read alike, the source gives them in different places.

In the case of `O=C(O)CC(O)(CC(=O)O)C(=O)O` [Citrate], the pKa2 (25 C) is given as 4.76, the pKa3 (25 C) is given as 6.40 and the pKa3 (as given for pre-filter fluid pH) is given as 6.3.
